Experimental data taken from EPA's ToxValDB 9.5.

System: Mus musculus
Conditions: oral
[1] = short-term, duration: 10 days, diet, M, C57BL/6, spleen: spleen: absolute weight + thymus: thymus: absolute weight
[2] = short-term, duration: 10 days, diet, M, C57BL/6, spleen: spleen: relative weight + thymus: thymus: relative weight
[3] = short-term, duration: 13 days, drinking water, F, C57BL/6, spleen: spleen CD8+ cells
[4] = short-term, duration: 14 days, gavage, M, BALB/c, relative mRNA expression of IL-1beta in spleen + thymus: apoptosis in thymus cells
[5] = short-term, duration: 14 days, gavage, M, BALB/c, relative mRNA expression of IL-1beta in thymus + spleen: apoptosis in spleen cells
[6] = short-term, duration: 14 days, gavage, M, Kunming, COX-2 in liver tissue
[7] = short-term, duration: 14 days, gavage, M, Kunming, CRP in liver tissue + liver: IL-6 levels
[8] = short-term, duration: 15 days, drinking water, F, C57BL/6, IgG antibody titer (SRBC) + IgM antibody titer (SRBC) + spleen: spleen: absolute weight + spleen: spleen: relative weight
[9] = short-term, duration: 15 days, drinking water, F, C57BL/6, IgM antibody titer (DNP)
[10] = short-term, duration: 15 days, drinking water, F, C57BL/6, IgM antibody titer (SRBC) + spleen: spleen: relative weight
[11] = short-term, duration: 15 days, drinking water, F, C57BL/6, spleen: spleen: absolute weight + spleen: spleen: relative weight + thymus: thymus: absolute weight + thymus: thymus: relative weight
[12] = short-term, duration: 15 days, drinking water, F, IgM antibody titer (SRBC)
[13] = short-term, duration: 21 days, drinking water, M, ICR, cytokine mRNA for IL-1 beta in spleen (relative to beta-actin) + expression of c-myc in thymus (relative to beta-actin) + mean body weight…
[14] = short-term, duration: 21 days, drinking water, M, ICR, cytokine mRNA for IL-6 in spleen (relative to beta-actin) + cytokine mRNA for TNF-alpha in spleen (relative to beta-actin) + expression of c…
[15] = short-term, duration: 28 days, gavage, M, BALB/c, testes: TNFa in testes
[16] = short-term, duration: 29 days, gavage, M, Crl:CD-1 (ICR) BR, IgM antibody titer (SRBC) + mean serum corticosterone + spleen: spleen: absolute weight + spleen: total number of splenocytes + thymus: …
[17] = short-term, duration: 29 days, gavage, M, Crl:CD-1 (ICR) BR, spleen: spleen: relative weight
[18] = subchronic, duration: 6 weeks, gavage, M, 129/SV, relative mRNA expression of TNF alpha/GAPDH in liver
[19] = subchronic, duration: 6 weeks, gavage, M, relative mRNA expression of TNF alpha/GAPDH in liver

O=C([O-])C(F)(F)C(F)(F)C(F)(F)C(F)(F)C(F)(F)C(F)(F)C(F)(F)F.[NH4+] [Ammonium perfluorooctanoate]
LOEL [1]: 0.01% | NOEL [1]: 0.003% | LOEL [2]: 0.01% | NOEL [2]: 0.005% | NOEL (short-term, duration: 10 days, drinking water, F, C57BL/6, spleen B220+ cells + spleen: spleen CD4+ cells + spleen: spleen CD8+ cells + spleen: spleen cellularity + spleen: spleen DN (CD4-/CD8-) …): 7.5 mg/kg-day | NOEL (short-term, duration: 10 days, gavage, F, C57BL/6, IgG antibody titer (SRBC) + spleen: spleen: absolute weight + spleen: spleen: relative weight + thymus: thymus: absolute weight + thymus: …): 30 mg/kg-day | LOEL (short-term, duration: 10 days, gavage, F, C57BL/6, IgM antibody titer (SRBC) + spleen: spleen: absolute weight + spleen: spleen: relative weight + thymus: thymus: absolute weight + thymus: …): 30 mg/kg-day | NOEL (short-term, duration: 13 days, drinking water, F, C57BL/6, spleen: spleen B220+ cells + spleen: spleen CD4+ cells + spleen: spleen cellularity + spleen: spleen DP (CD4+/CD8+) cells + spleen: spleen …): 7.5 mg/kg-day | LOEL [3]: 7.5 mg/kg-day | NOEL [3]: 3.75 mg/kg-day | LOEL (short-term, duration: 13 days, drinking water, F, C57BL/6, spleen: spleen DN (CD4-/CD8-) cells): 3.75 mg/kg-day | LOEL (short-term, duration: 14 days, gavage, M, BALB/c, change in body weight + spleen: apoptosis in spleen cells + spleen: spleen: relative weight + thymus: thymus: relative weight): 5 mg/kg-day | NOEL (short-term, duration: 14 days, gavage, M, BALB/c, relative mRNA expression of IL-1beta in spleen + relative mRNA expression of IL-1beta in thymus): 20 mg/kg-day | LOEL [4]: 10 mg/kg-day | NOEL [4]: 5 mg/kg-day | LOEL [5]: 20 mg/kg-day | NOEL [5]: 10 mg/kg-day | LOEL [6]: 5 mg/kg-day | NOEL [6]: 2.5 mg/kg-day | LOEL [7]: 10 mg/kg-day | NOEL [7]: 5 mg/kg-day | LOEL (short-term, duration: 14 days, gavage, M, Kunming, liver: Cox-2 levels + liver: CRP levels + liver: IL-6 levels): 10 mg/kg-day | LOEL (short-term, duration: 14 days, gavage, M, Kunming, liver: IL-6 levels + liver: TNF-alpha levels): 10 mg/kg-day | LOEL [8]: 25 mg/L | NOEL [8]: 12.5 mg/L | LOEL [9]: 1.88 mg/kg-day | NOEL [9]: 0.94 mg/kg-day | LOEL [10]: 30 mg/kg-day | NOEL [10]: 7.5 mg/kg-day | NOEL (short-term, duration: 15 days, drinking water, F, C57BL/6, spleen: spleen B220+ cells + spleen: spleen cellularity + spleen: spleen DN (CD4-/CD8-) cells + spleen: spleen DP (CD4+/CD8+) cells): 7.5 mg/kg-day | LOEL (short-term, duration: 15 days, drinking water, F, C57BL/6, spleen: spleen CD4+ cells + spleen: spleen CD8+ cells + spleen: spleen NK 1.1 cells): 3.75 mg/kg-day | LOEL [11]: 100 mg/L | NOEL [11]: 50 mg/L | NOEL (short-term, duration: 15 days, drinking water, F, C57BL/6, spleen: spleen: absolute weight + spleen: spleen: relative weight + thymus: thymus: relative weight): 200 mg/L | LOEL (short-term, duration: 15 days, drinking water, F, C57BL/6, thymus: thymus: relative weight): 7.5 mg/kg-day | LOEL [12]: 30 mg/kg-day | NOEL [12]: 7.5 mg/kg-day | NOEL (short-term, duration: 15 days, drinking water, F, spleen: spleen: relative weight + thymus: thymus: relative weight): 30 mg/kg-day | NOEL (short-term, duration: 15 days, gavage, F, C57BL/6, IgG antibody titer (SRBC) + spleen: spleen: absolute weight + spleen: spleen: relative weight + thymus: thymus: absolute weight + thymus: …): 30 mg/kg-day | LOEL (short-term, duration: 15 days, gavage, F, C57BL/6, IgM antibody titer (SRBC) + spleen: spleen: absolute weight + spleen: spleen: relative weight + thymus: thymus: absolute weight + thymus: …): 30 mg/kg-day | NOEL (short-term, duration: 16 days, diet, M, C57BL/6, - HRBC IgG1: 160 reciprocal serum dilution + - HRBC IgG1: 320 reciprocal serum dilution + - HRBC IgG1: 40 reciprocal serum dilution + - HRBC…): 0.02% | LOEL (short-term, duration: 16 days, diet, M, C57BL/6, IgG1 antibody-producing cells (HRBC) + IgG2b antibody-producing cells (HRBC) + IgG3 antibody-producing cells (HRBC) + IgM antibody-producing…): 200 mg/kg-day | LOEL (short-term, duration: 16 days, diet, M, C57BL/6, IgG1 antibody-secreting cells (HRBC) + IgG1 antibody level (HRBC 1:160) + IgG1 antibody level (HRBC 1:20) + IgG1 antibody level (HRBC 1:80…): 0.02% | LOEL [13]: 17.6 mg/kg-day | NOEL [13]: 2.64 mg/kg-day | LOEL [14]: 47.2 mg/kg-day | NOEL [14]: 17.6 mg/kg-day | NOEL (short-term, duration: 21 days, drinking water, M, ICR, cytokine mRNA for IL-6 in thymus (relative to beta-actin) + cytokine mRNA for TNF-alpha in thymus (relative to beta-actin) + cytokine mRNA …): 47.2 mg/kg-day | LOEL (short-term, duration: 21 days, drinking water, M, ICR, spleen: spleen CD8+ cells + spleen: spleen DN (CD4-CD8-) cells + spleen: spleen DP (CD4+CD8+) cells): 0.49 mg/kg-day | LOEL (short-term, duration: 23 days, gavage, M, Crl:CD-1 (ICR) BR, IgM antibody titer (SRBC) + spleen: spleen: absolute weight + spleen: spleen: relative weight + spleen: total number of splenocytes + thymus…): 30 mg/kg-day | NOEL (short-term, duration: 23 days, gavage, M, Crl:CD-1 (ICR) BR, mean serum corticosterone + spleen: incidence of spleen hematopoiesis + spleen: spleen: relative weight): 30 mg/kg-day | LOEL [15]: 5 mg/kg-day | NOEL [15]: 1.25 mg/kg-day | LOEL [16]: 10 mg/kg-day | NOEL [16]: 1 mg/kg-day | LOEL [17]: 1 mg/kg-day | NOEL [17]: 0.3 mg/kg-day | LOEL [18]: 5 mg/kg-day | NOEL [18]: 1 mg/kg-day | LOEL [19]: 5 mg/kg-day | NOEL [19]: 1 mg/kg-day
